Experiments:
[1] = system: HT-29 (colon cancer); assay: CellTiter-Glo cell viability dose response, HT-29; format: cell-based, human; conditions: HT-29, 48 hours, rank among test articles
Procedure: (§1) The CTG assay uses luciferase as a readout.
(§2) Luciferase luminescence were recorded for each well.

[2] = system: NCI H2342 non-small cell lung cancer (NSCLC), adenocarcinoma subtype; assay: CellTiter-Glo cell viability dose response, NCI H2342; format: cell-based, human; conditions: H2342, 48 hours of treatment, rank among test articles
Procedure: as §1, §2

[3] = system: CCD841 colon epithelium cells; assay: Toxicity to CCD841 colon epithelium cells; format: cell-based; conditions: 16 nM, 32 nM, 64 nM and 128 nM, 48 hours
Text: (§3) Methodologies used for cell line AML12 (non-cancerous liver cells) and CCD841 (non-cancerous colon epithelial cells) are similar to the methods used for cancer cells.

[4] = system: AML12 liver cells; assay: Toxicity to AML12 liver cells; format: cell-based; conditions: all doses studied (16 to 128 nM), 48 hours
Text: as §3

Compound	potency (cell viability) [1]	potency as measured by IC50 [2]	decrease in the number of CCD841 colon epithelium cells [3] [%]	reduction in the AML12 liver cell counts [4]
Nc1nc(=O)c2c(CCc3ccc(C(=O)N[C@@H](CCC(=O)N[C@@H](CCC(=O)N[C@@H](CCC(=O)N[C@@H](CCC(=O)N[C@@H](CCC(=O)N[C@@H](CCC(=O)O)C(=O)O)C(=O)O)C(=O)O)C(=O)O)C(=O)O)C(=O)O)cc3)c[nH]c2[nH]1 [gG6, pemetrexed L-gamma hexaglutamate]	least potent	least potent		
Nc1nc2[nH]cc(CCc3ccc(C(=O)N[C@@H](CCC(=O)O)C(=O)O)cc3)c2c(=O)[nH]1 [pemetrexed]			≥ 50	approximately 40%
